Values quoted from earlier work as cited in US20210205254A1, “OMEGA-3 PENTAENOIC ACID COMPOSITIONS AND METHODS OF USE” (Matinas BioPharma, Inc., priority 2012, published 2021).

Conditions: in vivo

| absorbed (rate) | bioavailable | SMILES |
| --- | --- | --- |
| about 30% |  | CC[C@H](C)C(=O)O[C@H]1C[C@@H](C)C=C2C=C[C@H](C)[C@H](CC[C@@H]3C[C@@H](O)CC(=O)O3)[C@H]21 [lovastatin] |
|  | approximately 24% | CC(C)n1c(/C=C/C(O)CC(O)CC(=O)O)c(-c2ccc(F)cc2)c2ccccc21 (centres unmarked) [fluvastatin] |
